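96-well plates; 48 h exposure; 5 concentrations. Endpoints by linear interpolation between flanking doses. Not reached: highest tested concentration assigned. GI50 marks 50% less growth. TGI: concentration producing complete growth inhibition.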
Legend:
Test in all cases: NCI-60 cell line screen, 48 h
SK-MEL-2 melanoma = tested on: SK-MEL-2 melanoma
UACC-257 melanoma = tested on: UACC-257 melanoma
HL-60(TB) leukemia = tested on: HL-60(TB) leukemia
EKVX NSCLC = tested on: EKVX NSCLC
RPMI-8226 leukemia = tested on: RPMI-8226 leukemia
MALME-3M melanoma = tested on: MALME-3M melanoma
SF-268 CNS = tested on: SF-268 CNS
MDA-MB-435 = tested on: MDA-MB-435
BT-549 breast = tested on: BT-549 breast
T-47D breast = tested on: T-47D breast

| SMILES | TGI (SK-MEL-2 melanoma) [µM] | TGI (UACC-257 melanoma) [µM] | TGI (HL-60(TB) leukemia) [µM] | TGI (EKVX NSCLC) [µM] | TGI (RPMI-8226 leukemia) [µM] | TGI (MALME-3M melanoma) [µM] | TGI (SF-268 CNS) [µM] | GI50 (MDA-MB-435) [nM] | TGI (MDA-MB-435) [µM] | GI50 (SK-MEL-2 melanoma) [nM] | GI50 (UACC-257 melanoma) [nM] | GI50 (HL-60(TB) leukemia) [nM] | GI50 (RPMI-8226 leukemia) [nM] | GI50 (BT-549 breast) [nM] | TGI (BT-549 breast) [µM] | GI50 (SF-268 CNS) [µM] | TGI (T-47D breast) [µM] | GI50 (EKVX NSCLC) [µM] | GI50 (T-47D breast) [µM] | GI50 (MALME-3M melanoma) [µM] |
| --- | --- | --- | --- | --- | --- | --- | --- | --- | --- | --- | --- | --- | --- | --- | --- | --- | --- | --- | --- | --- |
| COC(=O)C1CSC(c2csc(CCN)n2)=N1 (stereo not given) | > 100 | > 100 | > 100 | > 100 | > 100 | > 100 |  |  |  |  |  |  |  |  |  |  |  |  |  |  |
| NC1N=Nc2ccccc21 (stereo not given) | > 100 | > 100 | > 100 | > 100 | > 100 | > 100 | > 100 |  |  |  |  |  |  |  |  |  |  |  |  |  |
| CC1=NN(C(=O)Cc2ccccc2)C(=O)/C1=C\c1ccc([N+](=O)[O-])cc1 | > 100 | > 100 |  | > 100 | > 100 | > 100 | > 100 |  |  |  |  |  |  |  |  |  |  |  |  |  |
| O=C(NC(=Nc1ccccc1)SCSC(=Nc1ccccc1)NC(=O)c1ccco1)c1ccco1 | > 100 | > 100 |  | > 100 | > 100 | > 100 | > 100 |  |  |  |  |  |  |  |  |  |  |  |  |  |
| Cc1cc(=O)oc2cc(OCCCOc3ccc4c(C)cc(=O)oc4c3)ccc12 | > 100 | > 100 | > 100 | > 100 | > 100 | > 100 | > 100 |  |  |  |  |  |  |  |  |  |  |  |  |  |
| O=C(Cc1ccccc1[N+](=O)[O-])C(CO)c1ccccc1[N+](=O)[O-] (stereo not given) | > 100 | > 100 | > 100 | > 100 | > 100 | > 100 | > 100 |  |  |  |  |  |  |  |  |  |  |  |  |  |
| Cc1ccc([P+](Cc2ccccc2)(c2ccccc2)c2ccccc2)cc1 | 5.63 | 4.8 | 3.69 |  | 6.63 |  | > 100 | 610 | 3.42 | 2350 | 980 | 1140 | 600 | 3310 | 14.8 | 3.66 |  |  |  |  |
| C/C(CCn1[nH]c(=O)ccc1=O)=N\NC(=O)C(N)=O | > 100 | > 100 | > 100 | > 100 |  | > 100 | > 100 |  |  |  |  |  |  |  |  |  |  |  |  |  |
| O=C(O)CN(c1ccccc1)S(=O)(=O)c1cccc([N+](=O)[O-])c1 | > 100 | > 100 | > 100 | > 100 | > 100 | > 100 | > 100 |  |  |  |  |  |  |  |  |  |  |  |  |  |
| c1ccc2c(c1)SC(=C1Sc3ccccc3S1)S2 |  |  |  | > 100 |  | > 100 | > 100 |  |  |  |  |  |  |  |  |  |  |  |  |  |
| Cc1ccc([Se](=C(C(=O)c2ccccc2)C(=O)c2ccccc2)c2ccc(C)cc2)cc1 | > 100 | 53.1 | 54.2 |  | 22.4 | 50.3 | > 100 |  | 55 |  |  |  |  |  |  |  | > 100 |  |  |  |
| CC(=O)c1ccccc1NC(=O)C(=O)C(C(=O)c1ccc2ccccc2c1)C1OC(=O)c2ccccc21 (stereo not given) | 24.9 | 61.8 | 43.6 | > 100 | 52.7 | 23.3 | 51 |  |  |  |  |  |  |  |  |  |  |  |  |  |
| COc1ccc(Nc2nc3cc(C(F)(F)F)ccc3nc2-c2ccccc2)cc1OC | > 100 | 99.4 |  | 71.2 |  | 85.8 | > 100 |  |  |  |  |  |  |  |  |  |  |  |  |  |
| O=[N+]([O-])c1ccc(/C=C/c2nc3ccc(Cl)cc3[nH]2)cc1 | > 100 | > 100 | > 100 | > 100 | > 100 | > 100 | > 100 | 5360 | > 100 | > 100000 | > 100000 | > 100000 | 31400 |  |  | > 100 | > 100 | > 100 | 28.8 | > 100 |
| O=C1/C(=C/c2ccc([N+](=O)[O-])s2)Oc2cc(Cl)ccc21 | 3.33 |  |  |  | 2.23 |  |  |  |  | 1450 |  |  | 382 | 698 | 2.09 |  | > 100 |  | 1.5 |  |
| CC(C)OP(=S)(NC(=S)c1ccccc1)OC(C)C | > 100 | > 100 |  | > 100 |  | > 100 | > 100 |  |  |  |  |  |  |  |  |  |  |  |  |  |
| COc1ccc2nc3c([N+](=O)[O-])ccc(NCCN(C)C)c3c(N)c2c1 | 4.76 | 3.99 | 0.41 | 3.79 | 0.557 | 3.14 | 3.12 |  |  |  |  |  |  |  |  |  | 2.91 |  |  |  |
| COc1ccc2c(c1)[n+]([O-])c(-c1cccc(Cl)c1)c(N)[n+]2[O-] | > 100 | 64.7 | 95.6 | > 100 |  | > 100 | > 100 |  |  |  |  |  |  |  |  |  |  |  |  |  |
| CC1(C)NC(=O)N(CCCCCCN2C(=O)NC(C)(C)C2=O)C1=O | > 100 | > 100 |  | > 100 | > 100 | > 100 | > 100 |  |  |  |  |  |  |  |  |  |  |  |  |  |

Reference: PubChem BioAssay (NCI)
